Assay results reported in US10736326B2, “Nematode dispersant composition and method” (PHERONYM, INC., priority 2016, dated 2020).
“Also recorded” adds a separate entry of the source.

System: S. feltiae infective juveniles (IJ)
Test: Dispersal assay with S. feltiae infective juveniles on agar plates
Assay type: in vivo, Steinernema feltiae
Conditions: S. feltiae IJs; for dispersal activity in combination with fractions B and C: ascr#11 1.3 pmol/μl, FIG. 1C, 1D; for dispersal activity by itself: physiologically relevant concentration (ascr#9 40.3 pmol/μl, ascr#11 1.3 pmol/μl), FIG. 1B
Description: The dispersal assay for the activity guided purification in FIG. 1 used S. feltiae IJs that were washed with MILLI-Q water three times and incubated in 6 cm petri dishes for 36 h with a small amount (4-5 ml) of MILLI-Q water. The following day, nematodes were placed on a 10.7 g/L agar with gel strength 1010 g/cm^2 (PhytoTechnology Lab. Shawnee Mission, Kans.). Nematode behavior was assayed on multiple plates with internal plate replicates to rule out the possibility that behavior was affected by plate composition. Approximately 300 IJs in 10 μl water were placed on an agar medium and the test compounds or extracts were placed into 1-2 μl to the nematode suspension. Upon absorption (15-20 min) of the liquid, the freely moving nematodes were video-recorded for 5-10 min. Dispersal behavior is temperature and season dependent. During winter, the assay is effective at RT (22±1° C.). During summer, the assay requires a temperature-controlled environment due to effects on nematode behavior above 23° C.
Activity guided fractionation was conducted as described by Srinivasan et al 2008 with modifications. A total of 33 insect host cadavers (G. mellonella larvae) were placed into 70% EtOH and stored at −20° C. until extraction. The insect cadavers were homogenized using 1 g of ceramic zirconium beads (1.25 mm) (ZIRMIL) in 2 ml tubes for 37 sec using a Precellys24 (http://www.precellys.com) homogenizer. Samples were centrifuged for 15 min at 18400 rcf and the supernatant was lyophilized and resuspended in MILLI-Q water. The dispersal activity of nematodes was tested using the dispersal assay described herein above and a physiologically relevant concentration of insect host cadaver extract or fractionated extract. To facilitate calculations for physiologically relevant concentration of the ascarosides, wax worm volume was estimated at 200 μl; the average weight of wax worms was 232 (+/−57 mg; n=19).
The first reverse-phase solid-phase extraction was performed using Sep-Pak Plus C18 cartridges (Waters corporation, Milford, Mass.). The initially collected flow through was termed Fraction A. Thereafter, the column was washed with water, collected and saved. Subsequently, the column was eluted with 50% (Fraction B) and 90% MeOH (Fraction C). The fractions were tested for dispersal activity both individually and in combination. Also individual fractions were analyzed by LC-MS. Fraction A contained ascr#9, which was collected by LC-MS and tested for activity with Fraction B+C.
A total of 33 insect host cadavers ([…] larvae) were placed into 70% EtOH and were homogenized using 1 g of ceramic zirconium beads (1.25 mm) (ZIRMIL) in 2 ml tubes for 37 sec using a Precellys24 (http://www.precellys.com) homogenizer. Samples were centrifuged for 15 min at 18400 rcf and the supernatant was lyophilized and resuspended in MILLI-Q water. The dispersal activity of nematodes was tested using the dispersal assay described herein above. The extracts were resuspended in water as 10 times concentrated. The average weight of insect host is estimated 200 microL and therefore the dry cadavers extract from 1 insect equivalent was diluted in 20 microL of water. One microL of the concentrated extracts was added to the 10 ul of IJ water suspension.

Compound | dispersal activity in combination with fractions B and C | dispersal activity by itself | dispersal activity in combination with fractions B and C (listed as natural ascr#9) | dispersal activity in combination with fractions B and C (listed as synthetic ascr#9)
C[C@H](CC(=O)O)O[C@@H]1O[C@@H](C)[C@H](O)C[C@H]1O [ascr#11] | sufficient to cause dispersal; also recorded: active with the other two fractions | not active by themselves | – | –
C[C@H](CCC(=O)O)O[C@@H]1O[C@@H](C)[C@H](O)C[C@H]1O [ascr#9] | – | not active by themselves | active | confirms the active component
